Results on 13 molecules are retold here after patent US11065231B2, “Compounds and methods for the targeted degradation of interleukin-1 receptor- associated kinase 4 polypeptides” (Arvinas Operations, Inc., priority 2017, dated 2021).

Broadly, the IC50 is the concentration needed to halve the response being measured. A low value points to inhibition by little substance. One may read the DC50 as the concentration at which degradation of the target reaches its halfway point. The term Dmax denotes the largest share of the target that was removed.

For assay [1], the target named is T1, IRAK4 (Homo sapiens (Human), UniProt Q9NWZ3). As to the kind of experiment: Biochemical Z'-Lyte FRET assay for IRAK4 kinase inhibition. The conditions noted are these: 2 nM enzyme, 1 mM ATP, 2 μM substrate. The procedure: Biochemical Assay for IRAK4 Kinase Inhibition.
A Z′-Lyte assay based on a fluorescence resonance energy transfer (FRET) readout was developed for measuring IRAK4-dependent phosphorylation of a FRET-peptide substrate as described by Thermo Fisher Scientific (Grand Island, N.Y.). At a starting concentration of 1.5 mM, the identified compounds were serially diluted with 100% dimethyl sulfoxide (DMSO) in 3-fold increments, into Greiner bio-one 96-well plates (cat. #: 650201, Greiner bio-one, Monroe, N.C.). Compounds were then transferred to intermediate Greiner bio-one 96-well plates and diluted 10-fold with Kinase assay buffer (25 mM HEPES, pH 7.5, 10 mM MgCl2, 10 mM MnCl2, 1 mM EGTA, and 0.01% Brij-35, 2 mM DTT). Three μL of the serially diluted compounds were then transferred in duplicate to low-volume 384-well black proxiplates (cat. #: 6008269; Perkin Elmer, Akron, Ohio), to give duplicate twelve-point concentration curves. Six μl of a 2.5× solution of IRAK4 enzyme (cat #: 40064, BPS Bioscience, San Diego, Calif.) in kinase buffer was added to each well, followed by a 10 minutes pre-incubation step. Reactions were initiated by adding 6 μl of a 2.5× substrate mix of ATP and Z′-Lyte Ser/Thr 7 peptide (cat. #: PV3180, Thermo Fisher Scientific, Grand Island, N.Y.) and proceeded at room temperature for 1 hour. The final concentration of key reagents in the 15 uL kinase reactions were 2 μM substrate, 2 nM enzyme, and 1 mM ATP, with dose responses starting at 30 μM compound. At the end of the kinase reactions, 5 μl of developing solution (as instructed in for cat. #: PV3180, Thermo Fisher Scientific, Grand Island, N.Y.) was added to each well and incubated at room temperature for 1 hour. All wells were read on an Envision 2105 Multilabel fluorescence plate reader (Perkin Elmer, Waltham, Mass.) at 400 nm excitation and 460 nm/530 nm emission. Plus and minus 100% inhibition controls were used to calculate percent inhibition and IC50 curves were generated using Graphpad Prism (La Jolla, Calif.).

Assay [2] concerns the target T1, IRAK4. As to the kind of experiment: Western blot assay for assessing degradation of IRAK4 in MCF7 cells. It counts as cell-based. To be noted: Table 5, IRAK4 degradation, 24 hour incubation; for DC50: read-out: IRAK4 DC50; for Dmax: read-out: IRAK4 Dmax (%). The procedure:
Western Blot Assay for Assessing Degradation of IRAK4.
MCF7 cells, purchased from ATCC (Manassas, Va.), were used at a passage range of 2-19. Cells were seeded at 50% confluency in 96-well plates at 180 μl/well in cell media (Dulbecco's Modified Eagle medium/nutrient F-12 Ham-10% Fetal Bovine Serum) and incubated overnight. The next morning, compounds were serially diluted and added (20 μl into 180 μl media) at a final DMSO concentration of 0.1%. Cells were rinsed with cell media and replaced with compounds in media, followed by incubation overnight. After a 24 hour incubation with compound, cell were harvested (90-100% confluent at harvest). Cells were then washed once with 100 μl of Dulbecco's hosphate-buffered saline and then lysed with 40 μl of lysis buffer (1×RIPA+HALT protease inhibitor+HALT phosphatase inhibitor) on ice for 10 minutes. Lysates were then cleaned by filtration in 1.2 µm filter plates followed by western blotting. For each sample, 30 μl of lysate were added to 10 μl of 4×LDS sample buffer, then denatured at 95° C. for 5 minutes in the thermal cycler and placed on ice. Fifteen μL of each sample were then loaded on 4-15% Tris/Glycine gels and run for 25 minutes at 250 (constant) volts in 1× Tris/Glycine buffer. Protein was transferred from gels to nitrocellulose using a BioRad Turbo dry-transfer unit with the Turbo/midi default program. All blots were rinsed with ddH2O and blocked for 1 hour at room temperature in 5% bovine serum albumin (BSA) in tris-buffered saline-Tween 20 (TBS-T) (0.1%) on rocker. Blots were exposed to primary antibody in 5% BSA in TBS-T (0.1%) overnight at 4° C. on rocker. Primary antibodies, diluted 1:1000 in […], were as follows: anti-IRAK4 (cat. #: ab119942, Abcam, Cambridge, Mass.), anti-IRAK1 (cat. #: CST 4504S, Cell Signaling Technology, Danvers, Mass.), and anti-Beta-actin (Cat. #: ab8227, Abcam, Cambridge, Mass.). Blots were then washed with TBS-T (0.1%) three times for 5 minutes on a rocker at room temperature. Secondary antibody (1:18,000 anti-rabbit-HRP and/or anti-mouse-HRP in 5% BSA in TBST (0.1%) was then added, and blots incubated at room temperature rocker for 1 hour. Blots were washed 3 times in TBS-T (0.1%) for 5 minutes at room temperature on the rocker. Signal was developed with Femto Max substrate for 5 minutes and blots read on a ChemiDoc. Percent degradation was assessed by comparing IRAK4 signal in compound vs. DMSO treated lysates.
For orientation: Immunoblotting shows a protein as a band on a membrane.

The structures appear in SMILES notation.

T1 sequence (Q9NWZ3 whole entry): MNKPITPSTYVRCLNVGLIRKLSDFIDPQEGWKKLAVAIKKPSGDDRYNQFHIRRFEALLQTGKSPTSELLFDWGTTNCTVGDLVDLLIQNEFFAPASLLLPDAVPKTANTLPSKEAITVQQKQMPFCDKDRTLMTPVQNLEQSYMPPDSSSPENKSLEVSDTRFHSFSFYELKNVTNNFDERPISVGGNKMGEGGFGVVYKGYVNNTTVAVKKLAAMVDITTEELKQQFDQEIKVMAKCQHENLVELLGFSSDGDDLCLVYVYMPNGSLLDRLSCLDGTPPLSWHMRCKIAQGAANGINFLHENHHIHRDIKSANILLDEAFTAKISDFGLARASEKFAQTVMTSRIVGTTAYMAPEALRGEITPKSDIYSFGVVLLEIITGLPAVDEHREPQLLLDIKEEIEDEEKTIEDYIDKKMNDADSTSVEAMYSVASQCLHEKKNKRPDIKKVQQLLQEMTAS

With `O=C1CCC(N2C(=O)c3ccc(N4CCC(CN5CCN(Cc6ccc7c(c6)nc(NC(=O)c6cccc(C(F)(F)F)c6)n7[C@H]6CC[C@@H](CO)CC6)CC5)CC4)cc3C2=O)C(=O)N1` (some centres unmarked) [compound 9, N-(5-((4-((1-(2-(2,6-dioxopiperidin-3-yl)-1,3-dioxoisoindolin-5-yl)piperazin-4-yl)methyl)piperzin-1-yl)methyl)-1-((1s,4s)-4-(hydroxymethyl)cyclohexyl)-1H-benzo[d]imidazol-2-yl)-3-(trifluoromethyl)benzamide], the IC50 at IRAK4 [1] is < 30 nM. On IRAK4 [2], the DC50 is < 30 nM and the Dmax was > 70%.

On to `COc1cc2nn(C3CCN(CC4CCN(CCOc5ccc6c(c5)C(=O)N(C5CCC(=O)NC5=O)C6=O)CC4)CC3)cc2cc1NC(=O)c1cccc(C(F)(F)F)n1` (centres unmarked) [compound 63, N-(2-(1-((1-(2-((2-(2,6-dioxopiperidin-3-yl)-1,3-dioxoisoindolin-5-yl)oxy)ethyl)piperadin-4-yl)methyl)piperidin-4-yl)-6-methoxy-2H-indazol-5-yl)-6-(trifluoromethyl)picolinamide], for which the IC50 against IRAK4 [1] is < 30 nM. Further, at IRAK4 [2], the DC50 was 30 to 100 nM and the Dmax was > 70%.

Consider `COc1cccc(-n2c(NC(=O)c3cccc(C(F)(F)F)c3)nc3cc(CN4CCN(CCOCCOCCOc5ccc6c(c5)C(=O)N(C5CCC(=O)NC5=O)C6=O)CC4)ccc32)c1` (centres unmarked) [compound 54, N-(5-((4-(2-(2-(2-((2-(2,6-dioxopiperidin-3-yl)-1,3-dioxoisoindolin-5-yl)oxy)ethoxy)ethoxy)ethyl)piperazin-1-yl)methyl)-1-(3-methoxyphenyl)-1H-benzo[d]imidazol-2-yl)-3-(trifluoromethyl)benzamide], for which the 50% inhibitory concentration (IC50) against IRAK4 [1] is ≥ 1000 nM. Besides, the 50% degradation concentration (DC50) at IRAK4 [2] is ≥ 1000 nM.

At IRAK4 [1], `N#Cc1ccc2ncnc(N[C@H]3CC[C@H](N4CCN(CCOCCOc5ccc6c(c5)C(=O)N(C5CCC(=O)NC5=O)C6=O)CC4)CC3)c2c1` (some centres unmarked) [compound 30] had an IC50 of 300 to 1000 nM. In addition, the DC50 at IRAK4 [2] is ≥ 1000 nM.

Molecule `N#Cc1ccc2ncnc(N[C@H]3CC[C@H](N4CCN(CCOc5ccc6c(c5)C(=O)N(C5CCC(=O)NC5=O)C6=O)CC4)CC3)c2c1` (some centres unmarked) [compound 29] displayed an IC50 at IRAK4 [1] of 300 to 1000 nM. In addition, on IRAK4 [2], the DC50 was ≥ 1000 nM.

For the molecule `O=C1CCC(N2C(=O)c3ccc(OCCN4CCN(Cc5ccc6c(c5)nc(NC(=O)c5cccc(C(F)(F)F)c5)n6[C@H]5CC[C@@H](CO)CC5)CC4)cc3C2=O)C(=O)N1` (some centres unmarked) [compound 1, N-(5-((4-(2-((2-(2,6-dioxopiperidin-3-yl)-1,3-dioxoisoindolin-5-yl)oxy)ethyl)piperazin-1-yl)methyl)-1-((1s,4s)-4-(hydroxymethyl)cyclohexyl)-1H-benzo[d]imidazol-2-yl)-3-(trifluoromethyl)benzamide], the IC50 on IRAK4 [1] is < 30 nM. The DC50 on IRAK4 [2] was in the range of 100 to 300 nM.

The molecule `Cc1ncsc1-c1ccc(CNC(=O)[C@@H]2C[C@@H](O)CN2C(=O)[C@@H](NC(=O)COCCOCCN2CCN(Cc3ccc4c(c3)nc(NC(=O)c3cccc(C(F)(F)F)c3)n4[C@H]3CC[C@@H](CO)CC3)CC2)C(C)(C)C)cc1` (racemic) [compound 12, (2S,4R)-4-hydroxy-1-((S)-2-(2-(2-(2-(4-((1-((1SR,4SR)-4-(hydroxymethyl)cyclohexyl)-2-(3-(trifluoromethyl)benzamido)-1H-benzo[d]imidazol-5-yl)methyl)piperazin-1-yl)ethoxy)ethoxy)acetamido)-3,3-dimethylbutanoyl)-N-(4-(4-methylthiazol-5-yl)benzyl)pyrrolidine-2-carboxamide] had a 50% inhibitory concentration (IC50) against IRAK4 [1] of 30 to 100 nM. Moreover, at IRAK4 [2], the DC50 was ≥ 1000 nM.

Turning to `N#Cc1ccc2ncnc(N[C@H]3CC[C@H](N4CCN(S(=O)(=O)CCOCCOCCOCCOCCOc5ccc6c(c5)C(=O)N(C5CCC(=O)NC5=O)C6=O)CC4)CC3)c2c1` (some centres unmarked) [compound 40], the half-maximal inhibitory concentration (IC50) at IRAK4 [1] was ≥ 1000 nM. Further, the 50% degradation concentration (DC50) at IRAK4 [2] is ≥ 1000 nM.

`O=C1CCC(N2C(=O)c3cccc(NCCOCCOCCN4CCN(Cc5ccc6c(c5)nc(NC(=O)c5cccc(C(F)(F)F)c5)n6[C@H]5CC[C@@H](CO)CC5)CC4)c3C2=O)C(=O)N1` (some centres unmarked) [compound 66, N-(5-((4-(2-(2-(2-((2-(2,6-dioxopiperidin-3-yl)-1,3-dioxoisoindolin-4-yl)amino)ethoxy)ethoxy)ethyl)piperazin-1-yl)methyl)-1-((1s,4s)-4-(hydroxymethyl)cyclohexyl)-1H-benzo[d]imidazol-2-yl)-3-(trifluoromethyl)benzamide]: the IC50 at IRAK4 [1] is < 30 nM. Further, the DC50 at IRAK4 [2] was 300 to 1000 nM.

Take `COc1cc2nn(C3CCN(CCOCCOc4ccc5c(c4)C(=O)N(C4CCC(=O)NC4=O)C5=O)CC3)cc2cc1NC(=O)c1cccc(C(F)(F)F)n1` (centres unmarked) [compound 58, N-(2-(1-(2-(2-((2-(2,6-dioxopiperidin-3-yl)-1,3-dioxoisoindolin-5-yl)oxy)ethoxy)ethyl)piperidin-4-yl)-6-methoxy-2H-indazol-5-yl)-6-(trifluoromethyl)picolinamide]: at IRAK4 [1], the half-maximal inhibitory concentration (IC50) was < 30 nM. Besides, on IRAK4 [2], the DC50 is < 30 nM and the maximal degradation (Dmax) was 50 to 70%.

As to `COc1cccc(-n2c(NC(=O)c3cccc(C(F)(F)F)c3)nc3cc(CN4CCN(CCOc5ccc6c(c5)C(=O)N(C5CCC(=O)NC5=O)C6=O)CC4)ccc32)c1` (centres unmarked) [compound 56, N-(5-((4-(2-((2-(2,6-dioxopiperidin-3-yl)-1,3-dioxoisoindolin-5-yl)oxy)ethyl)piperazin-1-yl)methyl)-1-(3-methoxyphenyl)-1H-benzo[d]imidazol-2-yl)-3-(trifluoromethyl)benzamide], on IRAK4 [1], the IC50 is ≥ 1000 nM. The DC50 at IRAK4 [2] was ≥ 1000 nM.

For the molecule `O=C1CCC(N2Cc3cc(OCCOCCN4CCN(Cc5ccc6c(c5)nc(NC(=O)c5cccc(C(F)(F)F)c5)n6[C@H]5CC[C@@H](CO)CC5)CC4)ccc3C2=O)C(=O)N1` (some centres unmarked) [compound 6, N-(5-((4-(2-(2-((2-(2,6-dioxopiperidin-3-yl)-1-oxoisoindolin-5-yl)oxy)ethoxy)ethyl)piperazin-1-yl)methyl)-1-((1s,4s)-4-(hydroxymethyl)cyclohexyl)-1H-benzo[d]imidazol-2-yl)-3-(trifluoromethyl)benzamide], on IRAK4 [1], the IC50 was < 30 nM. In addition, at IRAK4 [2], the DC50 was ≥ 1000 nM.

`CN(CCOCCOCCOCCOc1ccc2c(c1)C(=O)N(C1CCC(=O)NC1=O)C2=O)c1cccc(-n2c(NC(=O)c3cccc(C(F)(F)F)c3)nc3cc(F)ccc32)c1` (centres unmarked) [compound 52, N-(1-(3-((2-(2-(2-(2-((2-(2,6-dioxopiperidin-3-yl)-1,3-dioxoisoindolin-5-yl)oxy)ethoxy)ethoxy)ethoxy)ethyl)(methyl)amino)phenyl)-5-fluoro-1H-benzo[d]imidazol-2-yl)-3-(trifluoromethyl)benzamide]: the IC50 at IRAK4 [1] is ≥ 1000 nM. In addition, at IRAK4 [2], the DC50 is ≥ 1000 nM.
